Measurements published in patent US7439362B2, “Piperazinyl-or piperidinylamine-sulfamic acid amides as inhibitors of steroid sulfatase” (Novartis AG, priority 2002, dated 2008).

What was measured:
[1] = target: T1, purified human steroid sulfatase (Homo sapiens, UniProt P08842); assay: Assay of Human Steroid Sulfatase (4-methylumbelliferyl sulfate cleavage, fluorescence); format: biochemical; conditions: purified human placental enzyme; 4-methylumbelliferyl sulfate substrate; 37° C., 1 hour
T1 construct: Human placenta is obtained freshly after delivery; from tissue; host or cells: human placenta (microsomes, Triton X-100 extract, chromatographically purified)
T1 sequence (P08842 22-583): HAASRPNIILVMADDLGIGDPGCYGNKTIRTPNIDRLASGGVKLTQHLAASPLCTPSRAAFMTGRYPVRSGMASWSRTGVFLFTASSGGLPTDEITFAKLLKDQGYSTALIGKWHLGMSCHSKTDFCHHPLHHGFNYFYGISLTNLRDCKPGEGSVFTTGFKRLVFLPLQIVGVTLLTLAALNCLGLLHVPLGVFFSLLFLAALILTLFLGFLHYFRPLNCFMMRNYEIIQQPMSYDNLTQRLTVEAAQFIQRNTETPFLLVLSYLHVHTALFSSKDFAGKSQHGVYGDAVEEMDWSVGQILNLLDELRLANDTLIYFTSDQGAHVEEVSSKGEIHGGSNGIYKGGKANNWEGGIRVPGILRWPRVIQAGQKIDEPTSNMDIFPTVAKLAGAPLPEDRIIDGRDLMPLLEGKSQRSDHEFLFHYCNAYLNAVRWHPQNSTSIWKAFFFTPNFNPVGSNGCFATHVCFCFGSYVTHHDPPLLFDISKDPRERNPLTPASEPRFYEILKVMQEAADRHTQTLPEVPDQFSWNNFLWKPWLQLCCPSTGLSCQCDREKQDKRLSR
Method: Human placenta is obtained freshly after delivery and stripped of membranes and connective tissues. For storage, the material is frozen at −70° C. After thawing, all further steps are carried out at 4° C., while pH values are adjusted at 20° C. 400 g of the tissue is homogenized in 1.2 l of buffer A (50 mM Tris-HCl, pH 7.4, 0.25 M sucrose). The homogenate obtained is centrifuged at 10,000×g for 45 minutes. The supernatant is set aside and the pellet obtained is re-homogenized in 500 ml of buffer A. After centrifugation, the two supernatants obtained are combined and subjected to ultracentrifugation (100,000×g, 1 hour). The pellet obtained is resuspended in buffer A and centrifugation is repeated. The pellet obtained is suspended in 50 ml of 50 mM Tris-HCl, pH 7.4 and stored at −20° C. until further work-up. […]
It is known that purified human steroid sulfatase not only is capable to cleave steroid sulfates, but also readily cleaves aryl sulfates such as 4-methylumbelliferyl sulfate which is used in the present test system as an activity indicator. […]
Plates are incubated at 37° C. for 1 hour. […] Fluorescence intensity is determined in a Titertek Fluoroskan. […]
[formula] wherein I100 is the intensity observed in the absence of inhibitor and s is a slope factor. Estrone sulfamate is used as a reference compound and its IC50 value is determined in parallel to all other test compounds. […]

[2] = target: T2, steroid sulfatase in human skin homogenate (Homo sapiens, UniProt P08842); assay: Assay Using Human Skin Homogenate ([3H]DHEAS cleavage); format: biochemical; conditions: human cadaver skin homogenate; DHEAS substrate; 18 hrs at 37° C.
T2 construct: Frozen specimens of human cadaver skin; from tissue; host or cells: human cadaver skin, minced and suspended in Triton X-100 buffer
T2 sequence (P08842 22-583): T1 sequence (P08842 22-583)
Method: Frozen specimens of human cadaver skin (about 100 mg per sample) are minced Into small pieces (about 1×1 mm) using sharp scissors. The pieces obtained are suspended in ten volumes (w/w) of buffer (20 mM Tris-HCl, pH 7.5), containing 0.1% Triton X-100. Test compounds (e.g. compounds of the present invention) are added at graded concentrations from stock solutions In ethanol or DMSO. Second, DHEAS as the substrate is added (1 μC/ml [^3H]DHEAS, specific activity: about 60 Ci/mmol, and 20 μM unlabeled DHEAS).
Samples are incubated for 18 hrs at 37° C. At the end of the Incubation period, 50 μl of 1 M Tris, pH 10.4 and 3 ml of toluene are added. A 1-ml aliquot of the organic phase is removed and subjected to liquid scintillation counting. The determined dpm-values in the aliquots are converted to nmol of DHEA cleaved per g of skin per hour.

## CC12CCC3c4ccc(OS(N)(=O)=O)cc4CCC3C1CCC2=O (stereo not drawn) [estrone sulfamate]
[1]
  IC50: ~60 nM

## NC(=O)c1ccc(C(F)(F)F)cc1N1CCC(NS(=O)(=O)NC(=O)c2cc(C(F)(F)F)cc(C(F)(F)F)c2)CC1 [Example 1, N-[[4-[1-(2-Aminocarbonyl-5-trifluoromethyl-phenyl)]-piperidinyl]-amino]-sulfonyl-3,5-bis-trifluoromethyl-benzamide]
other
  melting point: 192 to 195 °C
[2]
  IC50: 30 to 270 nM
